Measured values: ChEMBL document CHEMBL4814003, “Novel dual-mode antitumor chlorin-based derivatives as potent photosensitizers and histone deacetylase inhibitors for photodynamic therapy and chemotherapy” (Eur J Med Chem, 2021)

Tests used:
Histone deacetylase 1 = Histone deacetylase 1 (Homo sapiens, UniProt Q13547); experiment: Inhibition of human recombinant HDAC1 using Ac-Leu-Gly-Lys(Ac)-AMC as substrate by measuring fluorescence intensity incubated for 30 mins by microplate reader assay
A549 [1] = experiment: Dark toxicity in human A549 cells assessed as reduction in cell viability incubated under dark for 48 hrs measured after 48 hrs by CCK8 assay; assay type: functional, cell-based; conditions: A549, 48 h
HCT-116 [2] = experiment: Dark toxicity in human HCT-116 cells assessed as reduction in cell viability incubated under dark for 48 hrs measured after 48 hrs by CCK8 assay; assay type: functional, cell-based; conditions: HCT-116, 48 h
A549 [3] = experiment: Phototoxicity in human A549 cells assessed as reduction in cell viability irradiated 10 j/cm2 for 24 hrs followed by incubated for 24 hrs by CCK8 assay; assay type: functional, cell-based; conditions: A549, light or radiation study
HCT-116 [4] = experiment: Phototoxicity in human HCT-116 cells assessed as reduction in cell viability irradiated 10 j/cm2 for 24 hrs followed by incubated for 24 hrs by CCK8 assay; assay type: functional, cell-based; conditions: HCT-116, light or radiation study
A549 [5] = experiment: Induction of reactive oxygen species generation in human A549 cells assessed as mean count value at 0.05 uM incubated for 24 hrs by DCFH-DA staining based fluorescence microscopy assay; assay type: functional
A549 [6] = experiment: Induction of autophagy in human A549 cells irradiated 10 j/cm2 at 0.1 uM after 24 hrs using fluorescent molecule DAPRed; assay type: functional
A549 [7] = experiment: Induction of reactive oxygen species generation in human A549 cells assessed as mean count value at 0.01 uM incubated for 24 hrs by DCFH-DA staining based fluorescence microscopy assay; assay type: functional

Sequence of Histone deacetylase 1 (Q13547 whole entry): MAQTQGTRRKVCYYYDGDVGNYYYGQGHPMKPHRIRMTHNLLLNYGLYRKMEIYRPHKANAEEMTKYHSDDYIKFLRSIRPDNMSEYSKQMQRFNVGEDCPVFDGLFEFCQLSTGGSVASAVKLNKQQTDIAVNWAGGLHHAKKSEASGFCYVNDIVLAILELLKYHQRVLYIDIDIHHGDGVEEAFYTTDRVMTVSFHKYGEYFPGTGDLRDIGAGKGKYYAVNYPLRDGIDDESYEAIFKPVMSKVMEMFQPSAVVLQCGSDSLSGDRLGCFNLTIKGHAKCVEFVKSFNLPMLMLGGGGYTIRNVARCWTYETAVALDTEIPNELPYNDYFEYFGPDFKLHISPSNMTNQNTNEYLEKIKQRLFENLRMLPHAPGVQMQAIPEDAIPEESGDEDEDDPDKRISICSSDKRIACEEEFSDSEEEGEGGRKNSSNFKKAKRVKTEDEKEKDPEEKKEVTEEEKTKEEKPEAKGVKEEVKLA

SMILES | IC50 (Histone deacetylase 1) | IC50 (A549 [1]) | IC50 (HCT-116 [2]) | IC50 (A549 [3]) | IC50 (HCT-116 [4]) | Activity (A549 [5]) | Activity (A549 [6]) | Activity (A549 [7])
C=Cc1c(C)c2cc3nc(cc4[nH]c(cc5nc(cc1[nH]2)C(C)=C5CC)c(C)c4C(=O)OC)[C@@H](CCC(=O)Nc1ccc(C(=O)NO)cc1)[C@@H]3C | 28000 nM | 9240 nM | 4600 nM | 900 nM | 31 nM |  |  | 
C=Cc1c(C)c2cc3nc(c(C(=O)OC)c4[nH]c(cc5nc(cc1[nH]2)C(C)=C5CC)c(C)c4C(=O)OC)[C@@H](CCC(=O)O)[C@@H]3C |  | 15700 nM | 31300 nM | 300 nM | 520 nM |  |  | 
C=Cc1c(C)c2cc3nc(cc4[nH]c(cc5nc(cc1[nH]2)C(C)=C5CC)c(C)c4C(=O)OC)[C@@H](CCC(=O)O)[C@@H]3C |  | 15300 nM | 21800 nM | 920 nM | 1470 nM |  |  | 
C=Cc1c(C)c2cc3nc(c(CC(=O)N[C@@H](CC(=O)O)C(=O)O)c4[nH]c(cc5nc(cc1[nH]2)C(C)=C5CC)c(C)c4C(=O)O)[C@@H](CCC(=O)O)[C@@H]3C [TALAPORFIN] |  | 181000 nM | 50700 nM | 6210 nM | 2950 nM | 153.14 | 19.08% | 125.93
C=Cc1c(C)c2cc3nc(c(C(=O)OC)c4[nH]c(cc5nc(cc1[nH]2)C(C)=C5CC)c(C)c4C(=O)OC)[C@@H](CCC(=O)NCCCC(=O)Nc1ccccc1N)[C@@H]3C | 201000 nM | 3730 nM | 9140 nM | 310 nM | 330 nM |  |  | 
C=Cc1c(C)c2cc3nc(c(C(=O)OC)c4[nH]c(cc5nc(cc1[nH]2)C(C)=C5CC)c(C)c4C(=O)OC)[C@@H](CCC(=O)NCCCCC(=O)NO)[C@@H]3C | 49000 nM | 1510 nM | 2810 nM | 180 nM | 108 nM |  |  | 
C=Cc1c(C)c2cc3nc(c(C(=O)OC)c4[nH]c(cc5nc(cc1[nH]2)C(C)=C5CC)c(C)c4C(=O)OC)[C@@H](CCC(=O)NCCCCCC(=O)Nc1ccccc1N)[C@@H]3C | 90000 nM | 2670 nM | 9280 nM | 230 nM | 210 nM |  |  | 

Continued, in another order:

IC50 (Histone deacetylase 1) | SMILES | IC50 (A549 [1]) | IC50 (HCT-116 [2]) | IC50 (A549 [3]) | IC50 (HCT-116 [4]) | Activity (A549 [5]) | Activity (A549 [6]) | Activity (A549 [7])
88000 nM | C=Cc1c(C)c2cc3nc(c(C(=O)OC)c4[nH]c(cc5nc(cc1[nH]2)C(C)=C5CC)c(C)c4C(=O)OC)[C@@H](CCC(=O)NCCCCCC(=O)NO)[C@@H]3C | 1360 nM | 6890 nM | 120 nM | 39 nM |  |  | 
81000 nM | C=Cc1c(C)c2cc3nc(c(C(=O)OC)c4[nH]c(cc5nc(cc1[nH]2)C(C)=C5CC)c(C)c4C(=O)OC)[C@@H](CCC(=O)NCCCCC(=O)Nc1ccccc1N)[C@@H]3C | 3510 nM | 8630 nM | 300 nM | 260 nM |  |  | 
224000 nM | C=Cc1c(C)c2cc3nc(c(C(=O)OC)c4[nH]c(cc5nc(cc1[nH]2)C(C)=C5CC)c(C)c4C(=O)OC)[C@@H](CCC(=O)Nc1ccccc1N)[C@@H]3C | 590 nM | 4140 nM | 180 nM | 23 nM |  |  | 
79000 nM | C=Cc1c(C)c2cc3nc(c(C(=O)OC)c4[nH]c(cc5nc(cc1[nH]2)C(C)=C5CC)c(C)c4C(=O)OC)[C@@H](CCC(=O)NO)[C@@H]3C | 370 nM | 4180 nM | 130 nM | 11 nM |  |  | 
11000 nM | C=Cc1c(C)c2cc3nc(c(C(=O)OC)c4[nH]c(cc5nc(cc1[nH]2)C(C)=C5CC)c(C)c4C(=O)OC)[C@@H](CCC(=O)Nc1ccc(C(=O)NO)cc1)[C@@H]3C | 930 nM | 3490 nM | 130 nM | 270 nM |  |  | 
40000 nM | C=Cc1c(C)c2cc3nc(c(C(=O)OC)c4[nH]c(cc5nc(cc1[nH]2)C(C)=C5CC)c(C)c4C(=O)OC)[C@@H](CCC(=O)NCCCC(=O)NO)[C@@H]3C | 1840 nM | 5540 nM | 220 nM | 220 nM |  |  | 
